Reference: ChEMBL document CHEMBL2429768, “Eco-friendly synthesis and antimicrobial activities of substituted-5-(1H-indol-3-yl)methylene)-2,2-dimethyl-1,3-dioxane-4,6-dione derivatives” (2013)
≈ marks a conversion by molar mass, not a printed value. Blank lines part the entries; values can stand above or below the compound they belong to.

Key:
Format in all cases: functional
[1] = tested on: Aspergillus niger; assay: Antifungal activity against Aspergillus niger at 50 ug/ml after 72 hrs by agar well diffusion method; conditions: read-out: DIZ
[2] = tested on: Fusarium oxysporum; assay: Antifungal activity against Fusarium oxysporum at 500 ug/ml after 72 hrs by agar well diffusion method; conditions: read-out: DIZ
[3] = tested on: Fusarium oxysporum; assay: Antifungal activity against Fusarium oxysporum at 300 ug/ml after 72 hrs by agar well diffusion method; conditions: read-out: DIZ
[4] = tested on: Fusarium oxysporum; assay: Antifungal activity against Fusarium oxysporum at 200 ug/ml after 72 hrs by agar well diffusion method; conditions: read-out: DIZ
[5] = tested on: Fusarium oxysporum; assay: Antifungal activity against Fusarium oxysporum at 100 ug/ml after 72 hrs by agar well diffusion method; conditions: read-out: DIZ
[6] = tested on: Fusarium oxysporum; assay: Antifungal activity against Fusarium oxysporum at 50 ug/ml after 72 hrs by agar well diffusion method; conditions: read-out: DIZ
[7] = tested on: Rhizoctonia solani; assay: Antifungal activity against Rhizoctonia solani at 500 ug/ml after 72 hrs by agar well diffusion method; conditions: read-out: DIZ
[8] = tested on: Rhizoctonia solani; assay: Antifungal activity against Rhizoctonia solani at 300 ug/ml after 72 hrs by agar well diffusion method; conditions: read-out: DIZ
[9] = tested on: Rhizoctonia solani; assay: Antifungal activity against Rhizoctonia solani at 200 ug/ml after 72 hrs by agar well diffusion method; conditions: read-out: DIZ
[10] = tested on: Rhizoctonia solani; assay: Antifungal activity against Rhizoctonia solani at 100 ug/ml after 72 hrs by agar well diffusion method; conditions: read-out: DIZ
[11] = tested on: Rhizoctonia solani; assay: Antifungal activity against Rhizoctonia solani at 50 ug/ml after 72 hrs by agar well diffusion method; conditions: read-out: DIZ
[12] = tested on: Bacillus subtilis; assay: Antibacterial activity against Bacillus subtilis at 500 ug/ml after 24 hrs by agar well diffusion method; conditions: read-out: DIZ
[13] = tested on: Bacillus subtilis; assay: Antibacterial activity against Bacillus subtilis at 300 ug/ml after 24 hrs by agar well diffusion method; conditions: read-out: DIZ
[14] = tested on: Bacillus subtilis; assay: Antibacterial activity against Bacillus subtilis at 200 ug/ml after 24 hrs by agar well diffusion method; conditions: read-out: DIZ
[15] = tested on: Bacillus subtilis; assay: Antibacterial activity against Bacillus subtilis at 100 ug/ml after 24 hrs by agar well diffusion method; conditions: read-out: DIZ
[16] = tested on: Bacillus subtilis; assay: Antibacterial activity against Bacillus subtilis at 50 ug/ml after 24 hrs by agar well diffusion method; conditions: read-out: DIZ
[17] = tested on: Staphylococcus aureus; assay: Antibacterial activity against Staphylococcus aureus ATCC 6538 at 500 ug/ml after 24 hrs by agar well diffusion method; conditions: ATCC 6538, 24 h, read-out: DIZ
[18] = tested on: Staphylococcus aureus; assay: Antibacterial activity against Staphylococcus aureus ATCC 6538 at 300 ug/ml after 24 hrs by agar well diffusion method; conditions: ATCC 6538, 24 h, read-out: DIZ
[19] = tested on: Staphylococcus aureus; assay: Antibacterial activity against Staphylococcus aureus ATCC 6538 at 200 ug/ml after 24 hrs by agar well diffusion method; conditions: ATCC 6538, 24 h, read-out: DIZ
[20] = tested on: Staphylococcus aureus; assay: Antibacterial activity against Staphylococcus aureus ATCC 6538 at 100 ug/ml after 24 hrs by agar well diffusion method; conditions: ATCC 6538, 24 h, read-out: DIZ
[21] = tested on: Escherichia coli; assay: Antibacterial activity against Escherichia coli ATCC 8739 at 300 ug/ml after 24 hrs by agar well diffusion method; conditions: ATCC 8739, 24 h, read-out: DIZ
[22] = tested on: Escherichia coli; assay: Antibacterial activity against Escherichia coli ATCC 8739 at 200 ug/ml after 24 hrs by agar well diffusion method; conditions: ATCC 8739, 24 h, read-out: DIZ
[23] = tested on: Escherichia coli; assay: Antibacterial activity against Escherichia coli ATCC 8739 at 100 ug/ml after 24 hrs by agar well diffusion method; conditions: ATCC 8739, 24 h, read-out: DIZ
[24] = tested on: Escherichia coli; assay: Antibacterial activity against Escherichia coli ATCC 8739 at 50 ug/ml after 24 hrs by agar well diffusion method; conditions: ATCC 8739, 24 h, read-out: DIZ
[25] = tested on: Klebsiella pneumoniae; assay: Antibacterial activity against Klebsiella pneumoniae at 500 ug/ml after 24 hrs by agar well diffusion method; conditions: read-out: DIZ
[26] = tested on: Klebsiella pneumoniae; assay: Antibacterial activity against Klebsiella pneumoniae at 300 ug/ml after 24 hrs by agar well diffusion method; conditions: read-out: DIZ
[27] = tested on: Klebsiella pneumoniae; assay: Antibacterial activity against Klebsiella pneumoniae at 200 ug/ml after 24 hrs by agar well diffusion method; conditions: read-out: DIZ
[28] = tested on: Klebsiella pneumoniae; assay: Antibacterial activity against Klebsiella pneumoniae at 50 ug/ml after 24 hrs by agar well diffusion method; conditions: read-out: DIZ
[29] = tested on: Escherichia coli; assay: Antibacterial activity against Escherichia coli ATCC 8739 at 500 ug/ml after 24 hrs by agar well diffusion method; conditions: ATCC 8739, 24 h, read-out: DIZ
[30] = tested on: Klebsiella pneumoniae; assay: Antibacterial activity against Klebsiella pneumoniae at 100 ug/ml after 24 hrs by agar well diffusion method; conditions: read-out: DIZ
[31] = tested on: Staphylococcus aureus; assay: Antibacterial activity against Staphylococcus aureus ATCC 6538 at 50 ug/ml after 24 hrs by agar well diffusion method; conditions: ATCC 6538, 24 h, read-out: DIZ
[32] = tested on: Aspergillus flavus; assay: Antifungal activity against Aspergillus flavus at 50 ug/ml after 72 hrs by agar well diffusion method; conditions: read-out: DIZ
[33] = tested on: Aspergillus flavus; assay: Antifungal activity against Aspergillus flavus at 100 ug/ml after 72 hrs by agar well diffusion method; conditions: read-out: DIZ
[34] = tested on: Aspergillus flavus; assay: Antifungal activity against Aspergillus flavus after 72 hrs by agar well diffusion method
[35] = tested on: Aspergillus niger; assay: Antifungal activity against Aspergillus niger after 72 hrs by agar well diffusion method
[36] = tested on: Fusarium oxysporum; assay: Antifungal activity against Fusarium oxysporum after 72 hrs by agar well diffusion method
[37] = tested on: Rhizoctonia solani; assay: Antifungal activity against Rhizoctonia solani after 72 hrs by agar well diffusion method
[38] = tested on: Bacillus subtilis; assay: Antibacterial activity against Bacillus subtilis after 24 hrs by agar well diffusion method
[39] = tested on: Staphylococcus aureus; assay: Antibacterial activity against Staphylococcus aureus ATCC 6538 after 24 hrs by agar well diffusion method; conditions: ATCC 6538, 24 h
[40] = tested on: Escherichia coli; assay: Antibacterial activity against Escherichia coli ATCC 8739 after 24 hrs by agar well diffusion method; conditions: ATCC 8739, 24 h
[41] = tested on: Klebsiella pneumoniae; assay: Antibacterial activity against Klebsiella pneumoniae after 24 hrs by agar well diffusion method
[42] = tested on: Aspergillus flavus; assay: Antifungal activity against Aspergillus flavus at 500 ug/ml after 72 hrs by agar well diffusion method; conditions: read-out: DIZ
[43] = tested on: Aspergillus flavus; assay: Antifungal activity against Aspergillus flavus at 300 ug/ml after 72 hrs by agar well diffusion method; conditions: read-out: DIZ
[44] = tested on: Aspergillus flavus; assay: Antifungal activity against Aspergillus flavus at 200 ug/ml after 72 hrs by agar well diffusion method; conditions: read-out: DIZ
[45] = tested on: Aspergillus niger; assay: Antifungal activity against Aspergillus niger at 500 ug/ml after 72 hrs by agar well diffusion method; conditions: read-out: DIZ
[46] = tested on: Aspergillus niger; assay: Antifungal activity against Aspergillus niger at 300 ug/ml after 72 hrs by agar well diffusion method; conditions: read-out: DIZ
[47] = tested on: Aspergillus niger; assay: Antifungal activity against Aspergillus niger at 200 ug/ml after 72 hrs by agar well diffusion method; conditions: read-out: DIZ
[48] = tested on: Aspergillus niger; assay: Antifungal activity against Aspergillus niger at 100 ug/ml after 72 hrs by agar well diffusion method; conditions: read-out: DIZ

MIC [34]: 35 µg/mL (≈ 129 µM)
MIC [35]: 30 µg/mL (≈ 111 µM)
MIC [36]: 25 µg/mL (≈ 92.2 µM)
MIC [37]: 25 µg/mL (≈ 92.2 µM)
MIC [38]: 20 µg/mL (≈ 73.7 µM)
MIC [39]: 20 µg/mL (≈ 73.7 µM)
MIC [40]: 10 µg/mL (≈ 36.9 µM)
MIC [41]: 10 µg/mL (≈ 36.9 µM)
Structure (SMILES): CC1(C)OC(=O)C(=Cc2c[nH]c3ccccc23)C(=O)O1
zone of inhibition at 50 µg/mL [1]: 7 mm
zone of inhibition at 500 µg/mL [2]: 31 mm
zone of inhibition at 300 µg/mL [3]: 21 mm
zone of inhibition at 200 µg/mL [4]: 17 mm
zone of inhibition at 100 µg/mL [5]: 14 mm
zone of inhibition at 50 µg/mL [6]: 10 mm
zone of inhibition at 500 µg/mL [7]: 32 mm
zone of inhibition at 300 µg/mL [8]: 24 mm
zone of inhibition at 200 µg/mL [9]: 19 mm
zone of inhibition at 100 µg/mL [10]: 15 mm
zone of inhibition at 50 µg/mL [11]: 10 mm
zone of inhibition at 500 µg/mL [12]: 25 mm
zone of inhibition at 300 µg/mL [13]: 17 mm
zone of inhibition at 200 µg/mL [14]: 14 mm
zone of inhibition at 100 µg/mL [15]: 11 mm
zone of inhibition at 50 µg/mL [16]: 6 mm
zone of inhibition at 500 µg/mL [17]: 27 mm
zone of inhibition at 300 µg/mL [18]: 20 mm
zone of inhibition at 200 µg/mL [19]: 16 mm
zone of inhibition at 100 µg/mL [20]: 12 mm
zone of inhibition at 300 µg/mL [21]: 22 mm
zone of inhibition at 200 µg/mL [22]: 18 mm
zone of inhibition at 100 µg/mL [23]: 15 mm
zone of inhibition at 50 µg/mL [24]: 10 mm
zone of inhibition at 500 µg/mL [25]: 33 mm
zone of inhibition at 300 µg/mL [26]: 25 mm
zone of inhibition at 200 µg/mL [27]: 20 mm
zone of inhibition at 50 µg/mL [28]: 11 mm
zone of inhibition at 500 µg/mL [29]: 32 mm
zone of inhibition at 100 µg/mL [30]: 16 mm
zone of inhibition at 50 µg/mL [31]: 8 mm
zone of inhibition at 50 µg/mL [32]: 5 mm
zone of inhibition at 100 µg/mL [33]: 10 mm
zone of inhibition at 500 µg/mL [42]: 24 mm
zone of inhibition at 300 µg/mL [43]: 17 mm
zone of inhibition at 200 µg/mL [44]: 13 mm
zone of inhibition at 500 µg/mL [45]: 26 mm
zone of inhibition at 300 µg/mL [46]: 19 mm
zone of inhibition at 200 µg/mL [47]: 15 mm
zone of inhibition at 100 µg/mL [48]: 11 mm

MIC [34]: 40 µg/mL (≈ 121 µM)
MIC [35]: 40 µg/mL (≈ 121 µM)
MIC [36]: 35 µg/mL (≈ 106 µM)
MIC [37]: 35 µg/mL (≈ 106 µM)
MIC [38]: 30 µg/mL (≈ 90.8 µM)
MIC [39]: 25 µg/mL (≈ 75.7 µM)
MIC [40]: 15 µg/mL (≈ 45.4 µM)
MIC [41]: 15 µg/mL (≈ 45.4 µM)
Structure (SMILES): Cn1cc(C=C2C(=O)OC(C)(C)OC2=O)c2cc([N+](=O)[O-])ccc21
zone of inhibition at 50 µg/mL [1]: 6 mm
zone of inhibition at 500 µg/mL [2]: 29 mm
zone of inhibition at 300 µg/mL [3]: 21 mm
zone of inhibition at 200 µg/mL [4]: 16 mm
zone of inhibition at 100 µg/mL [5]: 12 mm
zone of inhibition at 50 µg/mL [6]: 7 mm
zone of inhibition at 500 µg/mL [7]: 29 mm
zone of inhibition at 300 µg/mL [8]: 21 mm
zone of inhibition at 200 µg/mL [9]: 16 mm
zone of inhibition at 100 µg/mL [10]: 12 mm
zone of inhibition at 50 µg/mL [11]: 7 mm
zone of inhibition at 500 µg/mL [12]: 23 mm
zone of inhibition at 300 µg/mL [13]: 15 mm
zone of inhibition at 200 µg/mL [14]: 12 mm
zone of inhibition at 100 µg/mL [15]: 9 mm
zone of inhibition at 50 µg/mL [16]: 4 mm
zone of inhibition at 500 µg/mL [17]: 25 mm
zone of inhibition at 300 µg/mL [18]: 18 mm
zone of inhibition at 200 µg/mL [19]: 14 mm
zone of inhibition at 100 µg/mL [20]: 10 mm
zone of inhibition at 300 µg/mL [21]: 20 mm
zone of inhibition at 200 µg/mL [22]: 16 mm
zone of inhibition at 100 µg/mL [23]: 13 mm
zone of inhibition at 50 µg/mL [24]: 8 mm
zone of inhibition at 500 µg/mL [25]: 31 mm
zone of inhibition at 300 µg/mL [26]: 23 mm
zone of inhibition at 200 µg/mL [27]: 18 mm
zone of inhibition at 50 µg/mL [28]: 9 mm
zone of inhibition at 500 µg/mL [29]: 30 mm
zone of inhibition at 100 µg/mL [30]: 14 mm
zone of inhibition at 50 µg/mL [31]: 6 mm
zone of inhibition at 50 µg/mL [32]: 4 mm
zone of inhibition at 100 µg/mL [33]: 9 mm
zone of inhibition at 500 µg/mL [42]: 23 mm
zone of inhibition at 300 µg/mL [43]: 15 mm
zone of inhibition at 200 µg/mL [44]: 12 mm
zone of inhibition at 500 µg/mL [45]: 25 mm
zone of inhibition at 300 µg/mL [46]: 18 mm
zone of inhibition at 200 µg/mL [47]: 14 mm
zone of inhibition at 100 µg/mL [48]: 10 mm
